Laboratory results as given in paper PMC5467147, “Identification of a Peptide for Systemic Brain Delivery of a Morpholino Oligonucleotide in Mouse Models of Spinal Muscular Atrophy” (Nucleic Acid Therapeutics, 2017).

Experiments:
[1] = tested on: SMN2 pre-mRNA exon 7; assay: In vivo screening of P-PMOs in neonatal SMA mice at PND4, full-length SMN2 by RT-qPCR; set-up: species or system mouse; conditions: facial vein at PND4, 2.66 nmol P-PMO, harvest 7 days after treatment, normalized to total SMN2, relative to saline, mean ± SEM, n = 4–6
[2] = tested on: patients; conditions: human, in vivo; cited from earlier work
[3] = tested on: SMNΔ7 mice; conditions: newborn SMNΔ7 mice, single ICV injections (27, 54, and 81 μg) at P0; cited from earlier work
Experimental: PMO is used in several clinical and preclinical studies due to its high stability and low toxicity. The PMO sequence PMO20, also known as HSMN2Ex7D(−10,-29), has been previously studied by Porensky et al.. Single ICV injections (27, 54, and 81 μg) of this PMO in newborn SMNΔ7 mice at P0 increased the levels of both full-length SMN2 RNA transcript in the brain and spinal cord as well as SMN protein and yielded an increased survival of >100 days. In a similar study, Zhou et al. used the same PMO sequence [PMO20 (−10, −29)] as well as PMO18 (−10, −27) and PMO25 (−10, −34 ...

[4] = tested on: severe SMA (Smn1tm1Hung/tm1Hung;SMN2tg/o) mice; assay: Survival and phenotype of severe newborn SMA mice treated at PND0 and PND2; type: in vivo, mouse; conditions: severe SMA pups
Experimental: Experiments were carried out in the Biomedical Sciences Unit, University of Oxford, according to procedures authorized by the UK Home Office and approved by the Unit Approval Board. Experiments were carried out using the SMA-like mouse strain FVB.Cg-Smn1^tm1HungTg(SMN2)2Hung/J. For the purposes of welfare, the peptide screen was carried out on hemizygotic (Smn1^tm1Hung/wt;SMN2^tg/tg) pups generated as previously described. Each litter (n = 4–6 per P-PMO) at PND4 was injected with P-PMO (2.6 nmol) in 10–15 μL of 0.9% saline. The control litter was injected with 0.9% saline. Neonatal mice were euthanized 7 days postinjection and brains, kidneys, and quadriceps were extracted and frozen on dry ice before RNA extraction. The Br-ApoE (K→A)-PMO and Br-ApoE (K→A)-scrambled PMO were further analyzed in homozygotic pups (Smn1^tm1Hung/tm1Hung;SMN2^tg/o) generated as previously described. Pups used for phenotype assessment were injected with 10 μg/g (1 nmol) Br-ApoE (K→A)-PMO, Br-ApoE (K→A)-scrambled PMO, SMA-PMO through the facial vein at PND0 and PND2. Treated animals were weighed daily and observed for survival longevity. A humane endpoint was determined by mobility and weight. Animals who had reached their humane endpoint were euthanized by rising CO2.
Pups were also tested from PND2 to PND12 for hindlimb strength and […]. Hindlimb strength was scored using a hindlimb suspension (HLS) test developed by PsychoGenics, Inc. and described in the standardized protocols and procedures for preclinical studies by TREAT-NMD. The HLS score relates to the position of the legs and tail of pups suspended by their hindlimbs onto the lip of a 50-cc test tube. A score of 0 − 4 is given with the 0 relating to the weakest phenotype (feet clasped and tail down) and a 4 given to the strongest phenotype (legs spread and tail up). For the purposes of reproducibility, factors such as leg pulls and time were left out of the analysis. Righting reflex was measured by placing pups on their back and timing their ability to right themselves onto all four paws.

Substance: AngioPep-2
- full-length SMN2 transcript, Brain [1]: 1 ± 0.03
- full-length SMN2 transcript, Kidney [1]: 1.07 ± 0.07
- full-length SMN2 transcript, Quad (quadriceps) [1]: 1.24 ± 0.1

Substance: Nusinersen
- patients who developed side effects such as headache, back pain, and postlumbar puncture syndromes [2]: 32 % of patients

Substance: SMA-PMO: unconjugated 20-mer PMO for SMN2 exon-7 inclusion, 5′-ATTCACTTTCATAATGCTGG-3′ (all phosphorodiamidate morpholino (PMO))
- full-length SMN2 transcript, Brain [1]: 1 ± 0.02
- full-length SMN2 transcript, Kidney [1]: 1 ± 0.04
- full-length SMN2 transcript, Quad (quadriceps) [1]: 1.25 ± 0.05
- survival [3]: > 100 days
- age range (survival) ([4]; 10 μg/g facial vein at PND0 and PND2, days by b51, saline 6–13): 11–49
- median survival ([4]; two doses of 10 mg/kg (10 μg/g) facial vein at PND0 and PND2, saline 10.5 days): 29 days
- hindlimb strength (hindlimb suspension tube test) ([4]; two doses of 10 mg/kg at PND0 and PND2, PND2 to PND12): gradual decline in muscle strength
